The source made the active and inactive calls.
How the values were obtained:
[1] = target: Large T antigen (Simian virus 40, UniProt P03070); type: functional, Betapolyomavirus macacae;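 also: Confirmatory-stage PubChem screen for compounds that inhibit SV40 T antigen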
[2] = target: Glucose-6-phosphate 1-dehydrogenase (Homo sapiens, UniProt P11413); assay: inhibition of Homo sapiens G6PD, dose series – biochemical, fluorescence, selectivity assay for P. falciparum G6PD inhibitor project, dose response (AID 504792); type: functional
Chain of Glucose-6-phosphate 1-dehydrogenase (P11413 whole entry, the tested form may be a part): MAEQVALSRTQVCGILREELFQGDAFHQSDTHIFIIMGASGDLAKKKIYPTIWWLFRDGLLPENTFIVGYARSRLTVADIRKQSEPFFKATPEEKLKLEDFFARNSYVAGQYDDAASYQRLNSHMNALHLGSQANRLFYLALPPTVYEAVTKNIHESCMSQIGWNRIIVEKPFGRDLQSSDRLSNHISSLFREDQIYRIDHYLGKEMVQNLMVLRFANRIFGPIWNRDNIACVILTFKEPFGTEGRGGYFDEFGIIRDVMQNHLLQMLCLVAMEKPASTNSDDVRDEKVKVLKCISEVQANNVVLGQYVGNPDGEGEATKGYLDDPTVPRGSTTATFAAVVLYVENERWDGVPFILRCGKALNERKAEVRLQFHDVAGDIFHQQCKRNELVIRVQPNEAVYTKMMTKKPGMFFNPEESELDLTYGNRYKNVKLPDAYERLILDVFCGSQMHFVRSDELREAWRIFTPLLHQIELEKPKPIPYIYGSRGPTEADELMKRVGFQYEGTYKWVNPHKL

[3] = target: T1, RNA-binding protein pos-1 (Caenorhabditis elegans, UniProt G5EF15); assay: disruptors of C. elegans POS-1 RNA interaction – biochemical, fluorescence polarization, dose response (AID 1964);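 also: purified POS-1 fused to maltose binding protein made in E. coli; potency of compounds blocking POS-1 binding to fluorescent RNA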
T1 sequence (G5EF15 whole entry): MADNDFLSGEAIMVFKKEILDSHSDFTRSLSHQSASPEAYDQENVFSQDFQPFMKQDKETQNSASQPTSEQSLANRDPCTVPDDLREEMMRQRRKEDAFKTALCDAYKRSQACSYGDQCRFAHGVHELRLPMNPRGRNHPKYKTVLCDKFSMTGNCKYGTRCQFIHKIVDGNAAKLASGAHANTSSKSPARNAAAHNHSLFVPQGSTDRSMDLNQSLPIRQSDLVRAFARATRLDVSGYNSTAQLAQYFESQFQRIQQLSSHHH

[4] = target: T2, Zinc finger protein mex-5 (Caenorhabditis elegans, UniProt Q9XUB2); assay: potency of MEX-5 RNA-binding blockers – biochemical, C. elegans, fluorescence polarization, dose response (AID 1960)
T2 sequence (Q9XUB2 whole entry): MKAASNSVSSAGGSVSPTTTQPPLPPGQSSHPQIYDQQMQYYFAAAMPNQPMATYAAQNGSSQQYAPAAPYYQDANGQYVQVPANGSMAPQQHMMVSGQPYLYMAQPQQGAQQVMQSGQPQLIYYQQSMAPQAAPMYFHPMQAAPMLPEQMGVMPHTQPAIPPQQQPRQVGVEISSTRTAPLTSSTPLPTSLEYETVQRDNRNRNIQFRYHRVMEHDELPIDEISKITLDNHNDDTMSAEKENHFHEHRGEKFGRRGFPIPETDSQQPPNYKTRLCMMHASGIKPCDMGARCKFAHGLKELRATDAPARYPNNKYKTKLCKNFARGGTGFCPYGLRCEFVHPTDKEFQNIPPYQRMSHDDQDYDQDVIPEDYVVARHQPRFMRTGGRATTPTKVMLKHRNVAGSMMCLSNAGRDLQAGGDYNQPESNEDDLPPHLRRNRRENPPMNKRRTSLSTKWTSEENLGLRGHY

[5] = target: DNA dC->dU-editing enzyme APOBEC-3A (Homo sapiens, UniProt P31941); assay: Dose Response confirmation of small molecule APOBEC3A DNA Deaminase Inhibitors via a fluorescence-based single-stranded DNA deaminase assay. [Related pubchem assays (depositor defined):AID493011, AID493024]; type: functional
Chain of DNA dC->dU-editing enzyme APOBEC-3A (P31941 whole entry): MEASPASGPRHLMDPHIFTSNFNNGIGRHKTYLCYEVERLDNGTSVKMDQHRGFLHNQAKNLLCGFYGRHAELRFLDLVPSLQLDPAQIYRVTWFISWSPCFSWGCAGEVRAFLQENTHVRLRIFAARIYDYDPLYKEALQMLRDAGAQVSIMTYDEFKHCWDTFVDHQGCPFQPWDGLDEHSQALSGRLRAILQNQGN

[6] = target: DNA dC->dU-editing enzyme APOBEC-3G (Homo sapiens, UniProt Q9HC16); type: functional;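 also: Dose-response counterscreen measuring inhibition of APOBEC3G DNA deaminase activity, run while confirming APOBEC3A inhibitors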
Chain of DNA dC->dU-editing enzyme APOBEC-3G (Q9HC16 whole entry): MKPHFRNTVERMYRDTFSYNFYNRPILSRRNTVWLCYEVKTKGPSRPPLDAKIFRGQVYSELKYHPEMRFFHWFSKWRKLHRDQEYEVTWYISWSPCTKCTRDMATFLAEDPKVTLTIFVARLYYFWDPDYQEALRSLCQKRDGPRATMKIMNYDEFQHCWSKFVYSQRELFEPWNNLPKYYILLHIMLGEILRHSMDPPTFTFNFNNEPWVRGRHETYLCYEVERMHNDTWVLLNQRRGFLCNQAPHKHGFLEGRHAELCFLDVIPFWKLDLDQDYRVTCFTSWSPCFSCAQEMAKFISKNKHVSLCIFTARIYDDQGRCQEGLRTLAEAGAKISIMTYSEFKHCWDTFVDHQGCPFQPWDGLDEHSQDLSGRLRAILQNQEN

[7] = target: UDP-galactopyranose mutase (Mycobacterium tuberculosis, UniProt P9WIQ1); assay: Inhibitors of Mycobacterium tuberculosis UDP-galactopyranose mutase (UGM) enzyme Measured in Biochemical System Using Plate Reader - 2105-02_Inhibitor_Dose_CherryPick_Activity. [Related pubchem assays (depositor defined):AID504439]
Chain of UDP-galactopyranose mutase (P9WIQ1 whole entry): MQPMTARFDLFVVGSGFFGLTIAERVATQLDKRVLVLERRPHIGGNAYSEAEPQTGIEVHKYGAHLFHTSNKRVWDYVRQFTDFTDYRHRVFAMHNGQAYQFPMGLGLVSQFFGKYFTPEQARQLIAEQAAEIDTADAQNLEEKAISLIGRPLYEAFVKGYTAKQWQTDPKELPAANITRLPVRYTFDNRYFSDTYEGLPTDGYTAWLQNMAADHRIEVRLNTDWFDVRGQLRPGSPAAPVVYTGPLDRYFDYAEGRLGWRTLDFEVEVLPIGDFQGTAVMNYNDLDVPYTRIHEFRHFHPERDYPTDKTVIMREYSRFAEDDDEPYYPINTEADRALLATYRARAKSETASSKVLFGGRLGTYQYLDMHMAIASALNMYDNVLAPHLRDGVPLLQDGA

[8] = target: T3, Caspase-3 (Homo sapiens, UniProt P42574); type: functional;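 also: Dose-response selectivity test against caspase-3 for candidate inhibitors of sentrin-specific proteases (SENPs)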
T3 sequence (P42574 whole entry): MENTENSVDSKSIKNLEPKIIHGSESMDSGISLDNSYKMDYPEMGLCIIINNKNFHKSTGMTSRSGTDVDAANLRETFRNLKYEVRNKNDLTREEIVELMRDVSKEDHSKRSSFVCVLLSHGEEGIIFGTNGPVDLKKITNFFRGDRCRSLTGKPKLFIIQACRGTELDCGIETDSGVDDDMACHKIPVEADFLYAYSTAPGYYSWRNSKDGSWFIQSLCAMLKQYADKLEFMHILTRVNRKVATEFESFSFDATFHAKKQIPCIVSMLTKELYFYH

[9] = target: T4, Sentrin-specific protease 7 (Homo sapiens, UniProt Q9BQF6); type: functional;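 also: Luminescence-based dose-response confirmation of ultra-high-throughput screening hits, measuring inhibition of SENP7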
T4 sequence (Q9BQF6 whole entry): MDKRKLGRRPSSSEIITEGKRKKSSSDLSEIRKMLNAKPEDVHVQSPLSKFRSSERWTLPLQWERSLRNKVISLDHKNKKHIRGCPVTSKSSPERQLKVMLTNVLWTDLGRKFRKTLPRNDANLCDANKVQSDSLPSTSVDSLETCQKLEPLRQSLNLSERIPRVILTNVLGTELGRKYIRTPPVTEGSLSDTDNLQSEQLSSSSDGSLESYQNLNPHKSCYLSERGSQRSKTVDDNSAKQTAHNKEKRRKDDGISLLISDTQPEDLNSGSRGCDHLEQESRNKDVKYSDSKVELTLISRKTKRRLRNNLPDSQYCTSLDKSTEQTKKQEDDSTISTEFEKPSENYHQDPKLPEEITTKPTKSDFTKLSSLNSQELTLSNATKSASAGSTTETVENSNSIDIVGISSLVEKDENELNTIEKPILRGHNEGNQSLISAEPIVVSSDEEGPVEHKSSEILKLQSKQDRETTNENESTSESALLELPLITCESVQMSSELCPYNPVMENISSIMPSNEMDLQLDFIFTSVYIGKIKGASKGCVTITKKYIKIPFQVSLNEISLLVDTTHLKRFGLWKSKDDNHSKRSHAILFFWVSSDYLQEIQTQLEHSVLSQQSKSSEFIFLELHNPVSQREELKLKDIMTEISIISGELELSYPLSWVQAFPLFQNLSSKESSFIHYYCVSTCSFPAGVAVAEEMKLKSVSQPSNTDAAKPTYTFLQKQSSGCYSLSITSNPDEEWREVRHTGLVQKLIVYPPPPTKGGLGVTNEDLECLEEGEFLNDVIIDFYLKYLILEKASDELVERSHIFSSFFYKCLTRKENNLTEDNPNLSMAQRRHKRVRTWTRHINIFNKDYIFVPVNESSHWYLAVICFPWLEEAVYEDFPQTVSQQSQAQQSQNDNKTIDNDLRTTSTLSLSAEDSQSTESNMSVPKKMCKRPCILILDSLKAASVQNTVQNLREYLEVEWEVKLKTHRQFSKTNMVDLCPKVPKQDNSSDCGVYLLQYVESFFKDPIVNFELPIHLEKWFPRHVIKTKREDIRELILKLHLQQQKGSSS

[10] = target: T5, Sentrin-specific protease 6 (Homo sapiens, UniProt Q9GZR1); type: functional;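 also: Luminescence-based dose-response confirmatory assay of SENP6 inhibition, following up an ultra-high-throughput screen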
T5 sequence (Q9GZR1 whole entry): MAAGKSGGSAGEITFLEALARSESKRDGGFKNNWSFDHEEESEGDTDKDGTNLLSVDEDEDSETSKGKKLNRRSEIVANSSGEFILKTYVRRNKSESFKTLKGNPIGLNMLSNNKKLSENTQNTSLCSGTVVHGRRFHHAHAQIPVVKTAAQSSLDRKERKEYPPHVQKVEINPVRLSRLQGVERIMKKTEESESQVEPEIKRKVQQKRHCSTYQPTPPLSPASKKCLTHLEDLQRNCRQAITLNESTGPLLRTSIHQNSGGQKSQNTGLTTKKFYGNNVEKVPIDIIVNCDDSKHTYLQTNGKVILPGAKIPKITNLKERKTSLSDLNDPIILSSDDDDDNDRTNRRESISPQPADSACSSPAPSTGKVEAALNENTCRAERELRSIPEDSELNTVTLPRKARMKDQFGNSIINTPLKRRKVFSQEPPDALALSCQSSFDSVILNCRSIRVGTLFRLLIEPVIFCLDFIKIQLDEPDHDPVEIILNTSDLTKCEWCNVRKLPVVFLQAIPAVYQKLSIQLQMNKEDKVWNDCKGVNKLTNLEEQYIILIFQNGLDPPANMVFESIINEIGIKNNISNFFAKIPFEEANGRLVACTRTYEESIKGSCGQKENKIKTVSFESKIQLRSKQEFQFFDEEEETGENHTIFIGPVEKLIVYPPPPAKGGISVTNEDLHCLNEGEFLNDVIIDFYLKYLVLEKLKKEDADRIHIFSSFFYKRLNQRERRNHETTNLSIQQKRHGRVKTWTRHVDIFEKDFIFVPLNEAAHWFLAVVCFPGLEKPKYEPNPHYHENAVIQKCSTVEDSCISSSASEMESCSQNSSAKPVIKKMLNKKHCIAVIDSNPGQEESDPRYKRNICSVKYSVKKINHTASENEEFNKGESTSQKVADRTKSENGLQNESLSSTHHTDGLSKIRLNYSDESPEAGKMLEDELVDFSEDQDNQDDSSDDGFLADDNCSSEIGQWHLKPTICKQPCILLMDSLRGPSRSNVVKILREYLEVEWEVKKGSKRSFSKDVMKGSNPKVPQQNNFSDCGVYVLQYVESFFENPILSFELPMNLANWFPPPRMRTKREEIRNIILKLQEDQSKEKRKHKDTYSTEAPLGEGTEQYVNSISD

[11] = target: T6, Sentrin-specific protease 8 (Homo sapiens, UniProt Q96LD8); type: functional;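 also: luminescence read-out of SENP8 inhibition, dose-response confirmation following an ultra-high-throughput screen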
T6 sequence (Q96LD8 whole entry): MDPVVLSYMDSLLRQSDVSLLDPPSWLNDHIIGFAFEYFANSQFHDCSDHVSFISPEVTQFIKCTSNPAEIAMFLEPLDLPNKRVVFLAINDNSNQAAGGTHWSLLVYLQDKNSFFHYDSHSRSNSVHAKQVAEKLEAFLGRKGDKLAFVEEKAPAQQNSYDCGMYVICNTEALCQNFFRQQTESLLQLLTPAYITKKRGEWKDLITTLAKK

[12] = test system: HEK293; assay: inhibition of NOD1-driven NF-kB reporter – cell-based, luminescence, uHTS, primary screen (AID 1578); type: functional; conditions: Homo sapiens
[13] = test system: HEK293; assay: cells; type: functional, cell-based; conditions: Homo sapiens
[14] = test system: HEK293; assay: cells; type: functional, cell-based; conditions: Homo sapiens; remark: listed apart in the source
[15] = target: Nucleotide-binding oligomerization domain-containing protein 2 (Homo sapiens, UniProt Q9HC29); assay: inhibition of NOD2-driven NF-kB reporter – cell-based, luminescence, uHTS, HEK293 (AID 1566); type: functional
Chain of Nucleotide-binding oligomerization domain-containing protein 2 (Q9HC29 whole entry, the tested form may be a part): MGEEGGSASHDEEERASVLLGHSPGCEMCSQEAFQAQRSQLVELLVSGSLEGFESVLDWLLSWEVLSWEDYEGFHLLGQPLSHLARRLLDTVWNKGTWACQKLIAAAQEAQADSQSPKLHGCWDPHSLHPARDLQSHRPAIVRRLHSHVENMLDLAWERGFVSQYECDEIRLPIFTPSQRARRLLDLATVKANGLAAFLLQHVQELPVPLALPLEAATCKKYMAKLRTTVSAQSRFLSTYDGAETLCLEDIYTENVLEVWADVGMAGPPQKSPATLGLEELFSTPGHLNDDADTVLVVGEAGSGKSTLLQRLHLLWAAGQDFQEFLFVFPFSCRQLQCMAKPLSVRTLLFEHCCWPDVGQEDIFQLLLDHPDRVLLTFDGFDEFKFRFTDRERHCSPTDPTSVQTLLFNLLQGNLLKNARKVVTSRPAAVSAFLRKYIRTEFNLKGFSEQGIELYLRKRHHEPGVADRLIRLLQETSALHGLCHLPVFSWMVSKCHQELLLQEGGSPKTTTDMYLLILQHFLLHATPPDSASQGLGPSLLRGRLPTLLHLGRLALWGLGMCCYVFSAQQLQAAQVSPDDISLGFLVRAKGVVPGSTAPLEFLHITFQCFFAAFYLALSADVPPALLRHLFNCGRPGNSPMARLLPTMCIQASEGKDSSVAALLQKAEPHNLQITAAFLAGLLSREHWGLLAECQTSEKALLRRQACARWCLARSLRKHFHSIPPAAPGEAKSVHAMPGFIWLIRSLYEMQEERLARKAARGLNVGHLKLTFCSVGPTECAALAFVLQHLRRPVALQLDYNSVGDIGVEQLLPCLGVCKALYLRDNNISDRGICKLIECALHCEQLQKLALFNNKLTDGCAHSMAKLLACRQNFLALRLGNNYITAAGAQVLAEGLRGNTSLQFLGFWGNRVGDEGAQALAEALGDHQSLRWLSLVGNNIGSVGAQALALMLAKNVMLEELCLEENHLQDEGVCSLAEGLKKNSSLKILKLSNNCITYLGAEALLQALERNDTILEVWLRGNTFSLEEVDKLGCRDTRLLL

[16] = test system: HEK293; assay: NOD2 signaling inhibitors in MDP-stimulated cells, cell-based, uHTS, luminescence (AID 2001); type: functional; conditions: Homo sapiens
[17] = test system: HEK293; assay: cells; type: functional, cell-based; conditions: Homo sapiens; remark: listed apart in the source
[18] = target: Cysteine protease ATG4B (Homo sapiens, UniProt Q9Y4P1); type: functional;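 also: Fluorescence-based dose-response confirmation assay measuring inhibition of ATG4B activity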
Chain of Cysteine protease ATG4B (Q9Y4P1 whole entry): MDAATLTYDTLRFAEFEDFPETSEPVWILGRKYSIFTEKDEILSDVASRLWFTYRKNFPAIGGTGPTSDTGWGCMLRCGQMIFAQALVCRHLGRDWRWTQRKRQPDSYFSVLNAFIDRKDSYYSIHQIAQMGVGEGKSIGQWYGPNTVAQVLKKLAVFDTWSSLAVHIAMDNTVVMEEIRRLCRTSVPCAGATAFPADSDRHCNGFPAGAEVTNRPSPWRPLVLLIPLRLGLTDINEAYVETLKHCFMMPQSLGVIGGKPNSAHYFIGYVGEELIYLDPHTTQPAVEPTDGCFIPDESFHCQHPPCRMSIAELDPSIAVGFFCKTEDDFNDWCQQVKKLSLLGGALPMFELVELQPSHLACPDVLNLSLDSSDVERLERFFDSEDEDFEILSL

[19] = target: Phospholipase A2 (Homo sapiens, UniProt P04054); type: functional;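 also: confirmatory dose-response counterscreen on phospholipase A2, testing hits that came from an ultra-high-throughput screen for ATG4B inhibitors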
Chain of Phospholipase A2 (P04054 whole entry): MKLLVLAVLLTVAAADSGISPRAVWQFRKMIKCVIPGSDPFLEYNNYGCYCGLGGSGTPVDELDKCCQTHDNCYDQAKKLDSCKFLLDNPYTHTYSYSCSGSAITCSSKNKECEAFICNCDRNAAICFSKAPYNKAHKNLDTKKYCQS

Chain of Large T antigen (P03070 whole entry): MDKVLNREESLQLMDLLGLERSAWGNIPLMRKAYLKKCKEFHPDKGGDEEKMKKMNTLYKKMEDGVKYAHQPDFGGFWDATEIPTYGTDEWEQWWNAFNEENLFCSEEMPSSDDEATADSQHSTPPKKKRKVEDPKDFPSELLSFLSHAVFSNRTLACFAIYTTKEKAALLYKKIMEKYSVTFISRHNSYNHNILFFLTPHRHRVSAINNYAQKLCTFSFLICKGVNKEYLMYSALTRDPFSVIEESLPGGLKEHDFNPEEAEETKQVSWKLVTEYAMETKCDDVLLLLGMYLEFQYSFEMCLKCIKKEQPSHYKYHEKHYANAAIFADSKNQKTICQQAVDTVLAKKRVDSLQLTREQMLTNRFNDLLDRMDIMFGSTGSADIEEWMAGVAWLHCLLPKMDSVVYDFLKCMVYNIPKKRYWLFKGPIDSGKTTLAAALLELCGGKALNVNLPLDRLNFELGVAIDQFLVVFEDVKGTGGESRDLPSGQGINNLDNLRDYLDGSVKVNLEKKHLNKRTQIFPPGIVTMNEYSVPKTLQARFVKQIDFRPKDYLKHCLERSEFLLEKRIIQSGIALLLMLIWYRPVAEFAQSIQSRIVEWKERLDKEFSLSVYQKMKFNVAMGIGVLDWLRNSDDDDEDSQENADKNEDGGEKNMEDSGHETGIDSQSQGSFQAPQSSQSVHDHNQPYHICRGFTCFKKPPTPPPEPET

c1cncc(CNc2ccc3c(c2)OCO3)c1
IC50 [1]: 25.4 µM (active) | IC50 [2]: > 80 µM (inactive)

NC(=O)C[n+]1cccc2ccccc21
EC50 [3]: 29.7 µM (active) | EC50 [4]: 22.3 µM (active) | IC50 [5]: 2.69 µM (active) | IC50 [6]: 2.52 µM (active) | AC50 [7]: 311 µM (active)

CC1=NN(C(N)=S)C(=O)C1N=Nc1ccc(Cl)cc1 (stereo not drawn)
IC50 [8]: 1.59 µM (active) | IC50 [9]: 2.07 µM (active) | IC50 [10]: 2.96 µM (active) | IC50 [11]: 2.58 µM (active)

c1csc(-c2csc(-c3cccs3)n2)c1
IC50 [8]: 25.3 µM (active) | IC50 [9]: 5.92 µM (active) | IC50 [10]: 20.1 µM (active) | IC50 [11]: 28.2 µM (active)

CC(=O)Nc1ccc(C(=O)Nc2nc(-c3cc(C)n(Cc4ccccc4)c3C)cs2)cc1
EC50 [12]: > 20 µM (inactive) | IC50 [13]: > 20 µM (inactive) | IC50 [14]: > 20 µM (inactive) | EC50 [15]: > 20 µM (inactive) | IC50 [16]: > 20 µM (inactive) | IC50 [17]: > 20 µM (inactive) | IC50 [18]: 10.2 µM (active) | IC50 [19]: 5.37 µM (active)

— ChEMBL document CHEMBL1201862, “PubChem BioAssay data set” (2004)
